# Results reported in ChEMBL document CHEMBL1909294, “Translating clinical findings into knowledge in drug safety evaluation--drug induced liver injury prediction system (DILIps)” (PLoS Comput Biol, 2011).
# Tests used:
# Hepatotoxicity [1] = test system: Hepatotoxicity;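 as to HepSE Combined Scores: combined hepatic side effect score as listed in the training data of the Drug Induced Liver Injury Prediction System (DILIps)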;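 as to HepSE bilirubinemia: bilirubinemia hepatic side effect score drawn from the DILIps training data, a prediction system for drug-induced liver injury; call rule not given here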;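 as to HepSE cholecystitis: Cholecystitis-related hepatic side effect score drawn from the DILIps (drug-induced liver injury prediction) training data set; call rule not given here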;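 as to HepSE cirrhosis: cirrhosis hepatic side effect score taken from the DILIps (drug-induced liver injury prediction) training set; call rule not given here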; as to HepSE hepatic failure: call rule not given here; as to HepSE liver disease: call rule not given here;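 as to HepSE liver fatty: hepatic side effect score for fatty liver, taken from the DILIps training set for predicting drug-induced liver injury; call rule not given here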
# Hepatotoxicity [2] = test system: Hepatotoxicity; remark: listed apart in the source;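 as to HepSE Combined Scores: combined hepatic side effect score as listed in the training data of the Drug Induced Liver Injury Prediction System (DILIps)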;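 as to HepSE bilirubinemia: bilirubinemia hepatic side effect score drawn from the DILIps training data, a prediction system for drug-induced liver injury; call rule not given here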;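 as to HepSE cholecystitis: Cholecystitis-related hepatic side effect score drawn from the DILIps (drug-induced liver injury prediction) training data set; call rule not given here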;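 as to HepSE cirrhosis: cirrhosis hepatic side effect score taken from the DILIps (drug-induced liver injury prediction) training set; call rule not given here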; as to HepSE hepatic failure: call rule not given here; as to HepSE liver disease: call rule not given here;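 as to HepSE liver fatty: hepatic side effect score for fatty liver, taken from the DILIps training set for predicting drug-induced liver injury; call rule not given here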
# Hepatotoxicity [3] = test system: Hepatotoxicity; remark: listed apart in the source;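 as to HepSE Combined Scores: combined hepatic side effect score as listed in the training data of the Drug Induced Liver Injury Prediction System (DILIps)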;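 as to HepSE bilirubinemia: bilirubinemia hepatic side effect score drawn from the DILIps training data, a prediction system for drug-induced liver injury; call rule not given here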;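 as to HepSE cholecystitis: Cholecystitis-related hepatic side effect score drawn from the DILIps (drug-induced liver injury prediction) training data set; call rule not given here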;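 as to HepSE cirrhosis: cirrhosis hepatic side effect score taken from the DILIps (drug-induced liver injury prediction) training set; call rule not given here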; as to HepSE hepatic failure: call rule not given here; as to HepSE liver disease: call rule not given here;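 as to HepSE liver fatty: hepatic side effect score for fatty liver, taken from the DILIps training set for predicting drug-induced liver injury; call rule not given here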
# Hepatotoxicity [4] = test system: Hepatotoxicity; remark: listed apart in the source;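 as to HepSE Combined Scores: combined hepatic side effect score as listed in the training data of the Drug Induced Liver Injury Prediction System (DILIps)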;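 as to HepSE bilirubinemia: bilirubinemia hepatic side effect score drawn from the DILIps training data, a prediction system for drug-induced liver injury; call rule not given here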;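 as to HepSE cholecystitis: Cholecystitis-related hepatic side effect score drawn from the DILIps (drug-induced liver injury prediction) training data set; call rule not given here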;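 as to HepSE cirrhosis: cirrhosis hepatic side effect score taken from the DILIps (drug-induced liver injury prediction) training set; call rule not given here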; as to HepSE hepatic failure: call rule not given here; as to HepSE liver disease: call rule not given here;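 as to HepSE liver fatty: hepatic side effect score for fatty liver, taken from the DILIps training set for predicting drug-induced liver injury; call rule not given here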
# Hepatotoxicity [5] = test system: Hepatotoxicity; remark: listed apart in the source; as to HepSE hepatic failure: call rule not given here; as to HepSE liver disease: call rule not given here
# Hepatotoxicity [6] = test system: Hepatotoxicity; remark: listed apart in the source; as to HepSE hepatic failure: call rule not given here; as to HepSE liver disease: call rule not given here
# Hepatotoxicity [7] = test system: Hepatotoxicity; remark: listed apart in the source
# Hepatotoxicity [8] = test system: Hepatotoxicity; remark: listed apart in the source
# Hepatotoxicity [9] = test system: Hepatotoxicity; remark: listed apart in the source
# Hepatotoxicity [10] = test system: Hepatotoxicity; remark: listed apart in the source
# Hepatotoxicity [11] = test system: Hepatotoxicity; remark: listed apart in the source
# Hepatotoxicity [12] = test system: Hepatotoxicity; remark: listed apart in the source
compound,measurement,setting,value
CCCCc1oc2ccccc2c1C(=O)c1cc(I)c(OCCN(CC)CC)c(I)c1 [AMIODARONE],HepSE_liver disease,Hepatotoxicity [1]; Liver,1
same,HepSE_cirrhosis,Hepatotoxicity [2]; Liver,1
same,HepSE_cholecystitis,Hepatotoxicity [3]; Liver,0
same,HepSE_liver fatty,Hepatotoxicity [4]; Liver,0
same,HepSE_bilirubinemia,Hepatotoxicity [5]; Liver,0
same,HepSE_hepatitis,Hepatotoxicity [6]; Liver,1
same,HepSE_Combined Scores,Hepatotoxicity [7]; Liver,5
same,HepSE_hepatic failure,Hepatotoxicity [8]; Liver,0
same,HepSE_hepatic necrosis,Hepatotoxicity [9]; Liver,0
same,HepSE_cholelithiasis,Hepatotoxicity [10]; Liver,0
same,HepSE_jaundice,Hepatotoxicity [11]; Liver,0
same,HepSE_hepatomegaly,Hepatotoxicity [12]; Liver,1
O=C(O)COCCN1CCN(C(c2ccccc2)c2ccc(Cl)cc2)CC1 (stereo not drawn) [CETIRIZINE],HepSE_liver disease,Hepatotoxicity [1]; Liver,0
same,HepSE_cirrhosis,Hepatotoxicity [2]; Liver,0
same,HepSE_cholecystitis,Hepatotoxicity [3]; Liver,0
same,HepSE_liver fatty,Hepatotoxicity [4]; Liver,0
same,HepSE_bilirubinemia,Hepatotoxicity [5]; Liver,0
same,HepSE_hepatitis,Hepatotoxicity [6]; Liver,1
same,HepSE_Combined Scores,Hepatotoxicity [7]; Liver,2
same,HepSE_hepatic failure,Hepatotoxicity [8]; Liver,0
same,HepSE_hepatic necrosis,Hepatotoxicity [9]; Liver,0
same,HepSE_cholelithiasis,Hepatotoxicity [10]; Liver,0
same,HepSE_jaundice,Hepatotoxicity [11]; Liver,1
same,HepSE_hepatomegaly,Hepatotoxicity [12]; Liver,0
CC(C)c1c(C(=O)Nc2ccccc2)c(-c2ccccc2)c(-c2ccc(F)cc2)n1CC[C@@H](O)C[C@@H](O)CC(=O)O [ATORVASTATIN],HepSE_liver disease,Hepatotoxicity [1]; Liver,0
same,HepSE_cirrhosis,Hepatotoxicity [2]; Liver,0
same,HepSE_cholecystitis,Hepatotoxicity [3]; Liver,0
same,HepSE_liver fatty,Hepatotoxicity [4]; Liver,0
same,HepSE_bilirubinemia,Hepatotoxicity [5]; Liver,0
same,HepSE_hepatitis,Hepatotoxicity [6]; Liver,1
same,HepSE_Combined Scores,Hepatotoxicity [7]; Liver,3
same,HepSE_hepatic failure,Hepatotoxicity [8]; Liver,0
same,HepSE_hepatic necrosis,Hepatotoxicity [9]; Liver,0
same,HepSE_cholelithiasis,Hepatotoxicity [10]; Liver,0
same,HepSE_jaundice,Hepatotoxicity [11]; Liver,1
same,HepSE_hepatomegaly,Hepatotoxicity [12]; Liver,0
CC(C)c1nc(CN(C)C(=O)N[C@H](C(=O)N[C@@H](Cc2ccccc2)C[C@H](O)[C@H](Cc2ccccc2)NC(=O)OCc2cncs2)C(C)C)cs1 [RITONAVIR],HepSE_liver disease,Hepatotoxicity [1],0
same,HepSE_cirrhosis,Hepatotoxicity [2],0
same,HepSE_cholecystitis,Hepatotoxicity [3],0
same,HepSE_liver fatty,Hepatotoxicity [4],0
same,HepSE_hepatitis,Hepatotoxicity [6],1
same,HepSE_Combined Scores,Hepatotoxicity [7],3
same,HepSE_hepatic necrosis,Hepatotoxicity [9],0
same,HepSE_cholelithiasis,Hepatotoxicity [10],0
same,HepSE_jaundice,Hepatotoxicity [11],1
same,HepSE_hepatomegaly,Hepatotoxicity [12],1
CCN(CC)CC(=O)Nc1c(C)cccc1C [LIDOCAINE],HepSE_liver disease,Hepatotoxicity [1]; Liver,0
same,HepSE_cirrhosis,Hepatotoxicity [2]; Liver,0
same,HepSE_cholecystitis,Hepatotoxicity [3]; Liver,0
same,HepSE_liver fatty,Hepatotoxicity [4]; Liver,0
same,HepSE_bilirubinemia,Hepatotoxicity [5]; Liver,0
same,HepSE_hepatitis,Hepatotoxicity [6]; Liver,0
same,HepSE_Combined Scores,Hepatotoxicity [7]; Liver,0
same,HepSE_hepatic failure,Hepatotoxicity [8]; Liver,0
same,HepSE_hepatic necrosis,Hepatotoxicity [9]; Liver,0
same,HepSE_cholelithiasis,Hepatotoxicity [10]; Liver,0
same,HepSE_jaundice,Hepatotoxicity [11]; Liver,0
same,HepSE_hepatomegaly,Hepatotoxicity [12]; Liver,0
CN(C)CCOC(c1ccccc1)c1ccccc1 [DIPHENHYDRAMINE],HepSE_liver disease,Hepatotoxicity [1]; Liver,0
same,HepSE_cirrhosis,Hepatotoxicity [2]; Liver,0
same,HepSE_cholecystitis,Hepatotoxicity [3]; Liver,0
same,HepSE_liver fatty,Hepatotoxicity [4]; Liver,0
same,HepSE_bilirubinemia,Hepatotoxicity [5]; Liver,0
same,HepSE_hepatitis,Hepatotoxicity [6]; Liver,0
same,HepSE_Combined Scores,Hepatotoxicity [7]; Liver,0
same,HepSE_hepatic failure,Hepatotoxicity [8]; Liver,0
same,HepSE_hepatic necrosis,Hepatotoxicity [9]; Liver,0
same,HepSE_cholelithiasis,Hepatotoxicity [10]; Liver,0
same,HepSE_jaundice,Hepatotoxicity [11]; Liver,0
same,HepSE_hepatomegaly,Hepatotoxicity [12]; Liver,0
CC1=C(C(=O)O)N2C(=O)[C@@H](NC(=O)[C@H](N)c3ccccc3)[C@H]2SC1 [CEPHALEXIN ANHYDROUS],HepSE_liver disease,Hepatotoxicity [1]; Liver,0
same,HepSE_cirrhosis,Hepatotoxicity [2]; Liver,0
same,HepSE_cholecystitis,Hepatotoxicity [3]; Liver,0
same,HepSE_liver fatty,Hepatotoxicity [4]; Liver,0
same,HepSE_bilirubinemia,Hepatotoxicity [5]; Liver,0
same,HepSE_hepatitis,Hepatotoxicity [6]; Liver,1
same,HepSE_Combined Scores,Hepatotoxicity [7]; Liver,2
same,HepSE_hepatic failure,Hepatotoxicity [8]; Liver,0
same,HepSE_hepatic necrosis,Hepatotoxicity [9]; Liver,0
same,HepSE_cholelithiasis,Hepatotoxicity [10]; Liver,0
same,HepSE_jaundice,Hepatotoxicity [11]; Liver,1
same,HepSE_hepatomegaly,Hepatotoxicity [12]; Liver,0
Cc1ccc(NC(=O)c2ccc(CN3CCN(C)CC3)cc2)cc1Nc1nccc(-c2cccnc2)n1 [IMATINIB],HepSE_liver disease,Hepatotoxicity [1],0
same,HepSE_cirrhosis,Hepatotoxicity [2],0
same,HepSE_cholecystitis,Hepatotoxicity [3],0
same,HepSE_liver fatty,Hepatotoxicity [4],0
same,HepSE_bilirubinemia,Hepatotoxicity [5],0
same,HepSE_hepatitis,Hepatotoxicity [6],1
same,HepSE_Combined Scores,Hepatotoxicity [7],4
same,HepSE_hepatic failure,Hepatotoxicity [8],1
same,HepSE_hepatic necrosis,Hepatotoxicity [9],1
same,HepSE_cholelithiasis,Hepatotoxicity [10],0
same,HepSE_jaundice,Hepatotoxicity [11],1
same,HepSE_hepatomegaly,Hepatotoxicity [12],0
COc1ccc2cc([C@H](C)C(=O)O)ccc2c1 [NAPROXEN],HepSE_liver disease,Hepatotoxicity [1]; Liver,0
same,HepSE_cirrhosis,Hepatotoxicity [2]; Liver,0
same,HepSE_cholecystitis,Hepatotoxicity [3]; Liver,1
same,HepSE_liver fatty,Hepatotoxicity [4]; Liver,0
same,HepSE_bilirubinemia,Hepatotoxicity [5]; Liver,0
same,HepSE_hepatitis,Hepatotoxicity [6]; Liver,1
same,HepSE_Combined Scores,Hepatotoxicity [7]; Liver,6
same,HepSE_hepatic failure,Hepatotoxicity [8]; Liver,1
same,HepSE_hepatic necrosis,Hepatotoxicity [9]; Liver,0
same,HepSE_cholelithiasis,Hepatotoxicity [10]; Liver,1
same,HepSE_jaundice,Hepatotoxicity [11]; Liver,1
same,HepSE_hepatomegaly,Hepatotoxicity [12]; Liver,0
CCOC(=O)N1CCC(=C2c3ccc(Cl)cc3CCc3cccnc32)CC1 [LORATADINE],HepSE_liver disease,Hepatotoxicity [1]; Liver,0
same,HepSE_cirrhosis,Hepatotoxicity [2]; Liver,0
same,HepSE_cholecystitis,Hepatotoxicity [3]; Liver,0
same,HepSE_liver fatty,Hepatotoxicity [4]; Liver,0
same,HepSE_bilirubinemia,Hepatotoxicity [5]; Liver,0
same,HepSE_hepatitis,Hepatotoxicity [6]; Liver,0
same,HepSE_Combined Scores,Hepatotoxicity [7]; Liver,0
same,HepSE_hepatic failure,Hepatotoxicity [8]; Liver,0
same,HepSE_hepatic necrosis,Hepatotoxicity [9]; Liver,0
same,HepSE_cholelithiasis,Hepatotoxicity [10]; Liver,0
same,HepSE_jaundice,Hepatotoxicity [11]; Liver,0
same,HepSE_hepatomegaly,Hepatotoxicity [12]; Liver,0
CN1C(=O)CN=C(c2ccccc2)c2cc(Cl)ccc21 [DIAZEPAM],HepSE_liver disease,Hepatotoxicity [1]; Liver,0
same,HepSE_cirrhosis,Hepatotoxicity [2]; Liver,0
same,HepSE_cholecystitis,Hepatotoxicity [3]; Liver,0
same,HepSE_liver fatty,Hepatotoxicity [4]; Liver,0
same,HepSE_bilirubinemia,Hepatotoxicity [5]; Liver,0
same,HepSE_hepatitis,Hepatotoxicity [6]; Liver,0
same,HepSE_Combined Scores,Hepatotoxicity [7]; Liver,1
same,HepSE_hepatic failure,Hepatotoxicity [8]; Liver,0
same,HepSE_hepatic necrosis,Hepatotoxicity [9]; Liver,0
same,HepSE_cholelithiasis,Hepatotoxicity [10]; Liver,0
same,HepSE_jaundice,Hepatotoxicity [11]; Liver,1
same,HepSE_hepatomegaly,Hepatotoxicity [12]; Liver,0
CCCNCC(O)COc1ccccc1C(=O)CCc1ccccc1 (stereo not drawn) [PROPAFENONE],HepSE_liver disease,Hepatotoxicity [1]; Liver,0
same,HepSE_cirrhosis,Hepatotoxicity [2]; Liver,0
same,HepSE_cholecystitis,Hepatotoxicity [3]; Liver,0
same,HepSE_liver fatty,Hepatotoxicity [4]; Liver,0
same,HepSE_bilirubinemia,Hepatotoxicity [5]; Liver,0
same,HepSE_hepatitis,Hepatotoxicity [6]; Liver,1
same,HepSE_Combined Scores,Hepatotoxicity [7]; Liver,4
same,HepSE_hepatic failure,Hepatotoxicity [8]; Liver,0
same,HepSE_hepatic necrosis,Hepatotoxicity [9]; Liver,0
same,HepSE_cholelithiasis,Hepatotoxicity [10]; Liver,0
same,HepSE_jaundice,Hepatotoxicity [11]; Liver,1
same,HepSE_hepatomegaly,Hepatotoxicity [12]; Liver,1
CC(C)NCC(O)COc1ccc(CC(N)=O)cc1 (stereo not drawn) [ATENOLOL],HepSE_liver disease,Hepatotoxicity [1]; Liver,0
same,HepSE_cirrhosis,Hepatotoxicity [2]; Liver,0
same,HepSE_cholecystitis,Hepatotoxicity [3]; Liver,0
same,HepSE_liver fatty,Hepatotoxicity [4]; Liver,0
same,HepSE_bilirubinemia,Hepatotoxicity [5]; Liver,0
same,HepSE_hepatitis,Hepatotoxicity [6]; Liver,0
same,HepSE_Combined Scores,Hepatotoxicity [7]; Liver,0
same,HepSE_hepatic failure,Hepatotoxicity [8]; Liver,0
same,HepSE_hepatic necrosis,Hepatotoxicity [9]; Liver,0
same,HepSE_cholelithiasis,Hepatotoxicity [10]; Liver,0
same,HepSE_jaundice,Hepatotoxicity [11]; Liver,0
same,HepSE_hepatomegaly,Hepatotoxicity [12]; Liver,0
CC(C)(C(=O)O)c1ccc(C(O)CCCN2CCC(C(O)(c3ccccc3)c3ccccc3)CC2)cc1 (stereo not drawn) [FEXOFENADINE],HepSE_liver disease,Hepatotoxicity [1]; Liver,0
same,HepSE_cirrhosis,Hepatotoxicity [2]; Liver,0
same,HepSE_cholecystitis,Hepatotoxicity [3]; Liver,0
same,HepSE_liver fatty,Hepatotoxicity [4]; Liver,0
same,HepSE_bilirubinemia,Hepatotoxicity [5]; Liver,0
same,HepSE_hepatitis,Hepatotoxicity [6]; Liver,0
same,HepSE_Combined Scores,Hepatotoxicity [7]; Liver,0
same,HepSE_hepatic failure,Hepatotoxicity [8]; Liver,0
same,HepSE_hepatic necrosis,Hepatotoxicity [9]; Liver,0
same,HepSE_cholelithiasis,Hepatotoxicity [10]; Liver,0
same,HepSE_jaundice,Hepatotoxicity [11]; Liver,0
same,HepSE_hepatomegaly,Hepatotoxicity [12]; Liver,0
COc1ccc(CCN(C)CCCC(C#N)(c2ccc(OC)c(OC)c2)C(C)C)cc1OC (stereo not drawn),HepSE_liver disease,Hepatotoxicity [1],0
same,HepSE_cirrhosis,Hepatotoxicity [2],0
same,HepSE_cholecystitis,Hepatotoxicity [3],0
same,HepSE_liver fatty,Hepatotoxicity [4],0
same,HepSE_bilirubinemia,Hepatotoxicity [5],0
same,HepSE_hepatitis,Hepatotoxicity [6],1
same,HepSE_Combined Scores,Hepatotoxicity [7],2
same,HepSE_hepatic failure,Hepatotoxicity [8],0
same,HepSE_hepatic necrosis,Hepatotoxicity [9],0
same,HepSE_cholelithiasis,Hepatotoxicity [10],0
same,HepSE_jaundice,Hepatotoxicity [11],1
same,HepSE_hepatomegaly,Hepatotoxicity [12],0
